Source: the supplement of paper PMC10307832

Key:
Assay in all cases: relative viability (nuclei count vs DMSO), 5 days (fraction); higher = more cells survive
Afatinib + Bortezomib = compound: CN(C)C/C=C/C(=O)Nc1cc2c(Nc3ccc(F)c(Cl)c3)ncnc2cc1O[C@H]1CCOC1 [Afatinib] + CC(C)C[C@H](NC(=O)[C@H](Cc1ccccc1)NC(=O)c1cnccn1)B(O)O [Bortezomib] (partner 0.002 µM)
Outline: (§1)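 After 5 days of treatment, lung cancer cells in 1536-well plates were fixed and stained in a single step (final 0.05% Triton X-100, 1% formaldehyde, 1 ug/ml Hoechst) and their nuclei counted on 4× images. Treatment had been applied by pin tool the day after seeding as one drug alone or as a fixed anchor-drug dose with five library-drug doses (not always all listed) in √10 steps. Relative viability is the nuclei count of treated wells divided by that of vehicle wells, and values are medians of duplicate plates.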

Afatinib + Pictilisib = compound: CN(C)C/C=C/C(=O)Nc1cc2c(Nc3ccc(F)c(Cl)c3)ncnc2cc1O[C@H]1CCOC1 [Afatinib] + CS(=O)(=O)N1CCN(Cc2cc3nc(-c4cccc5[nH]ncc45)nc(N4CCOCC4)c3s2)CC1 [Pictilisib] (partner 1 µM)
Outline: as §1

Afatinib + Olaparib = compound: CN(C)C/C=C/C(=O)Nc1cc2c(Nc3ccc(F)c(Cl)c3)ncnc2cc1O[C@H]1CCOC1 [Afatinib] + O=C(c1cc(Cc2n[nH]c(=O)c3ccccc23)ccc1F)N1CCN(C(=O)C2CC2)CC1 [Olaparib] (partner 8 µM)
Outline: as §1

Afatinib + Trametinib = compound: CN(C)C/C=C/C(=O)Nc1cc2c(Nc3ccc(F)c(Cl)c3)ncnc2cc1O[C@H]1CCOC1 [Afatinib] + CC(=O)Nc1cccc(-n2c(=O)n(C3CC3)c(=O)c3c(Nc4ccc(I)cc4F)n(C)c(=O)c(C)c32)c1 [Trametinib] (partner 0.02 µM)
Outline: as §1

Cell Line | relative viability (Afatinib + Bortezomib; first compound 0.005 µM) | relative viability (Afatinib + Bortezomib; first compound 0.01581 µM) | relative viability (Afatinib + Bortezomib; first compound 0.05 µM) | relative viability (Afatinib + Bortezomib; first compound 0.1581 µM) | relative viability (Afatinib + Bortezomib; first compound 0.5 µM) | relative viability (Afatinib + Pictilisib; first compound 0.005 µM) | relative viability (Afatinib + Pictilisib; first compound 0.01581 µM) | relative viability (Afatinib + Pictilisib; first compound 0.05 µM) | relative viability (Afatinib + Pictilisib; first compound 0.1581 µM) | relative viability (Afatinib + Pictilisib; first compound 0.5 µM) | relative viability (Afatinib + Olaparib; first compound 0.005 µM) | relative viability (Afatinib + Olaparib; first compound 0.01581 µM) | relative viability (Afatinib + Olaparib; first compound 0.05 µM) | relative viability (Afatinib + Olaparib; first compound 0.1581 µM) | relative viability (Afatinib + Olaparib; first compound 0.5 µM) | relative viability (Afatinib + Trametinib; first compound 0.005 µM) | relative viability (Afatinib + Trametinib; first compound 0.01581 µM) | relative viability (Afatinib + Trametinib; first compound 0.05 µM) | relative viability (Afatinib + Trametinib; first compound 0.1581 µM) | relative viability (Afatinib + Trametinib; first compound 0.5 µM)
HCC-44 | 1.04 | 0.91 | 0.891 | 0.903 | 1.01 | 0.619 | 0.619 | 0.638 | 0.514 | 0.533 | 0.958 | 0.921 | 0.974 | 1 | 1.01 | 1.04 | 1.09 | 1.01 | 1.04 | 1.12
HCC-78 | 0.528 | 0.514 | 0.566 | 0.362 | 0.434 | 0.207 | 0.189 | 0.19 | 0.218 | 0.173 | 0.792 | 0.932 | 0.852 | 0.717 | 0.667 | 0.788 | 0.677 | 0.723 | 0.559 | 0.698
HCC-366 | 1.1 | 1.07 | 1.08 | 0.972 | 1.06 | 0.143 | 0.123 | 0.224 | 0.134 | 0.191 | 0.299 | 0.38 | 0.391 | 0.3 | 0.367 | 0.361 | 0.247 | 0.353 | 0.293 | 0.29
HCC-827 | 0.704 | 0.25 | 0.299 | 0.316 | 0.342 | 0.295 | 0.324 | 0.312 | 0.37 | 0.226 | 0.135 | 0.0842 | 0.145 | 0.158 | 0.142 | 0.16 | 0.165 | 0.179 | 0.161 | 0.15
HOP-62 | 0.69 | 0.723 | 0.731 | 0.915 | 0.724 | 0.802 | 0.688 | 0.757 | 0.662 | 0.639 | 0.624 | 0.329 | 0.606 | 0.439 | 0.423 | 0.354 | 0.38 | 0.419 | 0.333 | 0.378
IA-LM | 0.929 | 0.719 | 0.796 | 0.828 | 0.825 | 0.251 | 0.221 | 0.227 | 0.198 | 0.212 | 1.07 | 0.821 | 0.947 | 0.761 | 0.805 | – | – | – | – | –
LC-2-ad | 1.01 | 1.03 | 1.06 | 0.991 | 1.19 | 0.617 | 0.427 | 0.439 | 0.359 | 0.375 | 0.752 | 0.754 | 0.724 | 0.707 | 0.701 | 0.954 | 0.914 | 0.92 | 0.832 | 0.87
LK-2 | – | – | – | – | – | 0.546 | – | 0.485 | 0.596 | 0.535 | 0.705 | 0.591 | 0.725 | 0.766 | 0.79 | 0.908 | 0.846 | 0.633 | 0.78 | 0.73
NCI-H358 | – | – | – | – | – | 0.305 | 0.241 | 0.279 | 0.288 | 0.269 | 0.48 | 0.586 | 0.314 | 0.145 | – | 0.119 | 0.115 | 0.13 | 0.102 | 0.127
NCI-H522 | – | – | – | – | – | – | – | – | – | – | 0.573 | 0.726 | 0.639 | 0.532 | 0.464 | 0.58 | 0.781 | 0.79 | 0.667 | 0.545
NCI-H1299 | 0.983 | 0.978 | 1.12 | 1.02 | 1.04 | 0.84 | 0.828 | 0.927 | 0.647 | 0.68 | 0.981 | 0.948 | 0.991 | 1.02 | 0.988 | – | – | – | – | –
NCI-H1395 | – | – | – | – | – | 0.658 | 0.515 | 0.723 | 0.624 | 0.551 | 0.471 | 0.475 | 0.463 | 0.483 | 0.49 | 1.13 | 0.832 | 1.09 | 0.911 | 1.06
NCI-H1563 | 0.882 | 0.774 | 0.919 | 0.694 | 0.759 | 0.6 | 0.644 | 0.683 | 0.637 | 0.657 | – | – | – | – | – | – | – | – | – | –
NCI-H1648 | – | – | – | – | – | – | – | – | – | – | 0.978 | 0.617 | 0.391 | 0.323 | 0.469 | 0.423 | 0.462 | 0.316 | 0.287 | 0.246
NCI-H1703 | 0.414 | 0.299 | 0.343 | 0.288 | 0.281 | 0.239 | 0.246 | 0.263 | 0.23 | 0.205 | 0.538 | – | 0.411 | 0.297 | 0.445 | – | – | – | – | –
NCI-H1793 | – | – | – | – | – | 0.36 | 0.23 | 0.362 | 0.39 | 0.31 | 0.659 | 0.633 | 0.461 | 0.398 | 0.582 | 0.436 | 0.377 | 0.432 | 0.345 | 0.401
NCI-H1944 | – | – | – | – | – | 0.387 | 0.307 | 0.335 | 0.319 | 0.335 | 0.384 | 0.364 | 0.39 | 0.326 | 0.332 | 0.431 | 0.373 | 0.358 | 0.259 | 0.298
NCI-H2170 | – | – | – | – | – | 0.285 | 0.228 | 0.237 | 0.185 | 0.209 | 0.624 | 0.598 | 0.475 | 0.169 | 0.155 | 0.892 | 0.853 | 0.615 | 0.169 | 0.156
NCI-H2342 | – | – | – | – | – | – | – | – | – | – | 0.375 | 0.457 | 0.411 | 0.347 | 0.406 | 0.761 | 0.723 | 0.726 | 0.74 | 0.672
SK-MES-1 | – | – | – | – | – | 0.273 | 0.238 | 0.217 | 0.213 | 0.208 | 0.682 | 0.489 | 0.325 | 0.334 | 0.404 | 0.424 | 0.317 | 0.349 | 0.307 | 0.42
SW 900 | – | – | – | – | – | – | – | – | – | – | 0.757 | 0.726 | 0.89 | 0.664 | 0.77 | 0.572 | 0.657 | 0.759 | 0.745 | 0.581
